Data taken from US9388195B2, “Heterocyclic compound” (Takeda Pharmaceutical Company Limited, priority 2010, dated 2016).
Structures can show the parent of a compound that is named as a salt. Where two headings read alike, the source gives them in different places.

Assays:
[1] = system: human colorectal cancer cell Colo205; assay: Measurement of growth inhibitory activity on human colorectal cancer cell Colo205 (CellTiter-Glo); type: cell-based; conditions: COLO 205, 72 h, read-out: inhibitory rate (%) at 1 μM
Method: The growth inhibition of colorectal cancer cell Colo205 with the compound of the present invention can be measured as follows.
A cell suspension (100 μl) of human colorectal cancer cell Colo205 (purchased from ATCC) (3,000 cells/well) was plated in a 96 well plate, and cultured in a 5% carbon dioxide gas incubator at 37° C. for 1 day. Each 2 μM test compound solution was added by 100 μl and the cells were cultured for 3 days. CellTiter-Glo™ Luminescent Cell Viability Assay reagent (50 μl, Promega) was added to the 96 well plate, the luminescence level was measured by a luminometer and the residual ATP amount was taken as the cell amount. The luminescence level of a well free of cell plating was taken as a blank. The cell proliferation inhibitory rate (%) of the test compound was calculated by the following formula. Inhibitory rate(%)=(1−(luminescence level of test compound—blank)[…](luminescence level of control group—blank))×100

[2] = system: phosphorylated MCM2 (Ser40/Ser41); assay: Measurement of MCM2 phosphorylation inhibitory activity in human colorectal cancer cell Colo205 (Western blot); type: cell-based; conditions: read-out: inhibitory rate (%) at 1 μM
Method: The MCM2 phosphorylation suppressive action of the compound of the present invention in human colorectal cancer cell Colo205 can be measured as follows. A cell suspension (500 μl) of human colorectal cancer cell Colo205 (purchased from ATCC) (50,000 cells/well) was plated in a 24 well plate, and cultured in a 5% carbon dioxide gas incubator at 37° C. for 1 day. […] The plate was washed with PBS, the cells were lysed in Laemmli Sample Buffer (BioRad), and cell lysate was treated at 95° C. for 5 min.

[3] = molecular target: T1, Cdc7/Dbf4 complex (Homo sapiens, UniProt O00311); assay: Measurement of Cdc7 kinase inhibitory activity (Transcreener ADP HTRF assay); type: biochemical
T1 construct: Full-length Cdc7 co-expressed with full-length Dbf4; purchased Carna Biosciences (Kobe)
T1 sequence (O00311 whole entry): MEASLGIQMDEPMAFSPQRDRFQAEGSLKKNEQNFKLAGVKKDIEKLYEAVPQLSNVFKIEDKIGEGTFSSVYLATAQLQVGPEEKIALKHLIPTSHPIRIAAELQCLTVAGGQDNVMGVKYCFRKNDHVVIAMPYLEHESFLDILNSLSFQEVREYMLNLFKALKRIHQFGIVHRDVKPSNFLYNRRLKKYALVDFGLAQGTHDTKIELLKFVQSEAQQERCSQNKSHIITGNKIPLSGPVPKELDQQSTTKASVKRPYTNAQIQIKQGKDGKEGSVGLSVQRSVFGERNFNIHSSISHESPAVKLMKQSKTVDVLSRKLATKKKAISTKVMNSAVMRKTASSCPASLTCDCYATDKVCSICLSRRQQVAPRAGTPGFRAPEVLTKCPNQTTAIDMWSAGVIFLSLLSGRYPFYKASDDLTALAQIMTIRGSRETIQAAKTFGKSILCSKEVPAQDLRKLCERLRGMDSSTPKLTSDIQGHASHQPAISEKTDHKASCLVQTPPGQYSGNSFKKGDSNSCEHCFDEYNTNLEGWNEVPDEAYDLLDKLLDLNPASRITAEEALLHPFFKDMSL
T1 sequence (Q9UBU7 whole entry partner): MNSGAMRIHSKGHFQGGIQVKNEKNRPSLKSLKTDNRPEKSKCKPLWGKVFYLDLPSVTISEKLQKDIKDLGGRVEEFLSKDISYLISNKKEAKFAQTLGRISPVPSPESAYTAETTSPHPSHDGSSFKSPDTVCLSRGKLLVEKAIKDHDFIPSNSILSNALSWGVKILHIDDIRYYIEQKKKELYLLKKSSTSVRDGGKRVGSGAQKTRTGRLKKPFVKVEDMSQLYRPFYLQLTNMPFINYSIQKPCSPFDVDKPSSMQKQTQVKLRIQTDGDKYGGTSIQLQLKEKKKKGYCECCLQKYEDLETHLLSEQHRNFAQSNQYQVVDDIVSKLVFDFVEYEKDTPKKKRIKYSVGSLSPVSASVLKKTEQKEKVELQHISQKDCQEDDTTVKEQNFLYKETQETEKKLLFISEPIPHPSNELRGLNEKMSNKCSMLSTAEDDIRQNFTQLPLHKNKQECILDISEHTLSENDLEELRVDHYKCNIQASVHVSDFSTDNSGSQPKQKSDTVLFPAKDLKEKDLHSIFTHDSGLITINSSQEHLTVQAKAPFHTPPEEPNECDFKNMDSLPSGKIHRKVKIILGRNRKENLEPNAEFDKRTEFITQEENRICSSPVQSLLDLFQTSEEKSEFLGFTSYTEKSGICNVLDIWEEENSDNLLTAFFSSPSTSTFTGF
Method: Full-length Cdc7 co-expressed with full-length Dbf4 was purchased from Carna Biosciences (Kobe). The enzyme activity of Cdc7/Dbf4 complex was detected by homogeneous time-resolved fluorescence method Transcreener ADP assay (Cisbio Inc., MA, U.S.A.). […] Free ADP produced by ATP hydrolysis was detected by Eu^3+-Cryptate-labeled anti-ADP monoclonal antibody competitively with d2-labeled ADP, and the production amount thereof was measured. The obtained time-resolved fluorescence resonance energy transfer signal was measured by EnVision (Perkin Elmer Inc., MA, U.S.A.). The inhibitory rate (%) of the test compound to Cdc7 was calculated by the following formula. Inhibitory rate(%)=(1−(count of test compound-blank)[…](control-blank))×100
The count of the Cdc7/Dbf4 reaction mixture under compound-free conditions was taken as the control, and that under compound-free and Cdc7/Dbf4-free conditions was taken as the blank.

[4] = system: human colorectal cancer cell Colo205; assay: Measurement of antitumor activity in human colorectal cancer cell Colo205 cancer bearing mouse; type: in vivo; conditions: Colo205 tumor growth ratio, mice
Method: Tumor volume=long diameter×short diameter×short diameter×(½) Mice having an engrafted tumor volume of about 200 mm^3 were selected, and 5 mice per group were used for the experiment. […] The tumor diameter was measured one day before the start of the administration and the next day of the completion of the administration and the tumor volume was calculated. The tumor growth ratio of the test compound administration group as compared to that of the control administration group was taken as T/C(%) and calculated by the following formula. T/C(%)=(tumor volume of test compound administration group after completion of administration−tumor volume of test compound administration group one day before start of administration)/(tumor volume of control administration group after completion of administration−tumor volume of control administration group one day before start of administration))×100

[5] = system: phosphorylated MCM2 (Ser40/Ser41); assay: animal or person; conditions: Mus musculus, COLO 205, po, 4 h, read-out: inhibitory rate (%)
Method: Human colorectal cancer cell Colo205 was suspended in 50% Matrigel solution, and transplanted into 6- to 7-week-old female BALB/c mice (CLEA Japan, Inc.) at 5.0×10^6 cells by subcutaneous injection. The diameter of the tumor engrafted in 7 to 14 days from the transplantation was measured, and the tumor volume was calculated by the following formula. Tumor volume=long diameter×short diameter×short diameter×(½)
A suspension of the test compound in 0.5% methylcellulose solution (Wako Pure Chemical Industries, Ltd.) was orally administered at a dose shown in the Table to mice having a tumor volume of 150-600 mm^3. The tumor was removed under ether anesthesia at 4 hr after administration of the test compound, and homogenized in Cell Lysis Buffer (Cell Signaling). Using BCA Protein assay kit (Thermo Scientific), the protein in the tumor lysate was quantified, and the protein amount was adjusted. The above-mentioned protein solution was treated with Laemmli Sample Buffer (BioRad) at 95° C. for 5 min.
Then, SDS-PAGE was performed and the protein was transferred onto a PVDF membrane by using iBlot™ gel transfer system (Invitrogen). […] The membrane was washed in the same manner as above, chemical luminescence of antibody-labeled phosphorylated MCM2 protein using SuperSignal West FemtoMaximum Sensitivity Substrate (Pierce Biotechnology) was detected by lumino image analyzer LAS-1000 (Fuji Film).
Using the anti-MCM2 antibody (Santa Cruzu Biotechnology, sc-9839) and HRP-labeled goat IgG polyclonal antibody (Santa Cruzu Biotechnology, sc-2020) and in the same manner as above, the MCM2 protein was detected.
The phosphorylated MCM2 specific activity of each sample was calculated by the following formula. Phosphorylated MCM2 specific activity=(phosphorylated MCM2 luminescence level-background)+(MCM2 luminescence level-background)
The phosphorylated MCM2 protein inhibitory rate (%) of the test compound was calculated by the following formula and shown in Table. […]

[6] = test compound 1 μM, Cdc7/Dbf4, 1.0 μm ATP, 10 μg/ml MCM2, dihydrochloride
[7] = 100 mg/kg orally twice a day for 14 days
[8] = test compound 1 μM, Cdc7/Dbf4, 1.0 μm ATP, 10 μg/ml MCM2, read-out: inhibitory rate (%) at 1 μM
[9] = read-out: inhibitory rate (%) at 1 μM, test compound 1 μM, Cdc7/Dbf4, 1.0 μm ATP, 10 μg/ml MCM2
[10] = cell proliferation, Colo205, 1 μM, cultured for 3 days
[11] = COLO 205, phosphorylated MCM2 protein, Colo205 cells, 1 μM, 8 hr

In the case of `Cc1[nH]ncc1-c1cc2nc([C@@H]3CCCN3)[nH]c(=O)c2s1` [Example 37, 6-(5-methyl-1H-pyrazol-4-yl)-2-[(2S)-pyrrolidin-2-yl]thieno[3,2-d]pyrimidin-4 (3H)-one dihydrochloride], the inhibition at 1 µM [1] is reported as 75.3%, the inhibition at 1 µM ([2]; COLO 205, 8 h) is reported as 98.4% and the “inhibitory rate (%) at 1 μM” value [3, 6] is reported as 102.6%.
For `Cc1[nH]ncc1-c1cc2nc([C@@H]3CCCCN3)[nH]c(=O)c2s1` [Example 83, 6-(5-methyl-1H-pyrazol-4-yl)-2-[(2S)-piperidin-2-yl]thieno[3,2-d]pyrimidin-4 (3H)-one dihydrochloride], the inhibition at 1 µM [1] was 76.6%, the inhibition at 1 µM ([2]; COLO 205, 8 h) was 97.6% and the “T/C (%)” value [4, 7] was 5.7%. The inhibition at 100 mg/kg [5] was 71.8% and the “inhibitory rate (%) at 1 μM” value [3, 6] was 125.5%.
With `Cc1[nH]ncc1-c1cc2nc([C@@H]3CC4CCN3CC4)[nH]c(=O)c2s1` [Example 170, 2-[(2S)-1-azabicyclo[2.2.2]oct-2-yl]-6-(5-methyl-1H-pyrazol-4-yl)thieno[3,2-d]pyrimidin-4 (3H)-one trifluoroacetate] the inhibition at 1 µM [1] was 69.7%, the inhibition at 1 µM ([2]; COLO 205, 8 h) was 97.3% and the inhibition at 1 µM [3, 8] was 95%.
In the case of `Cc1[nH]ncc1-c1cc2nc([C@@H]3CC=CCN3)[nH]c(=O)c2s1` [Example 145, 6-(5-methyl-1H-pyrazol-4-yl)-2-[(2S)-1,2,3,6-tetrahydropyridin-2-yl]thieno[3,2-d]pyrimidin-4 (3H)-one dihydrochloride], the inhibition at 1 µM [1] is reported as 78.5%, the inhibition at 1 µM ([2]; COLO 205, 8 h) is reported as 95.8% and the “T/C (%)” value [4, 7] is reported as −4.7%. For the same compound, the inhibition at 100 mg/kg [5] was 68.9% and the inhibition at 1 µM [3, 9] was 126%.
Compound `Cc1[nH]ncc1-c1cc2nc([C@H]3N[C@@H]4CC[C@H]3C4)[nH]c(=O)c2s1` [Example 91, 2-[(1R,3S,4S)-2-azabicyclo[2.2.1]heptan-3-yl]-6-(5-methyl-1H-pyrazol-4-yl)thieno[3,2-d]pyrimidin-4 (3H)-one] has an inhibition at 1 µM [1, 10] of 71.7%, an inhibition at 1 µM [2, 11] of 98.4% and an inhibition at 1 µM [3, 8] of 106%.
With `O=c1[nH]c([C@@H]2CCCCN2)nc2cc(-c3cn[nH]c3C(F)(F)F)sc12` [Example 161, 2-[(2S)-piperidin-2-yl]-6-[5-(trifluoromethyl)-1H-pyrazol-4-yl]thieno[3,2-d]pyrimidin-4 (3H)-one hydrochloride] the inhibition at 1 µM [1] was 78.6%, the inhibition at 1 µM ([2]; COLO 205, 8 h) was 96.2% and the “T/C (%)” value [4, 7] was −3.6%. The inhibition at 100 mg/kg [5] was 80.9% and the inhibition at 1 µM [3, 9] was 102%.
`Cc1[nH]ncc1-c1cc2nc([C@H]3NC4CC3[C@H](F)C4)[nH]c(=O)c2s1` (single isomer, unassigned) [Example 160, 2-[(1R,3S,4R,5R) or (1S,3S,4S,5R)-5-fluoro-2-azabicyclo[2.2.1]hept-3-yl]-6-(5-methyl-1H-pyrazol-4-yl)thieno[3,2-d]pyrimidin-4 (3H)-one dihydrochloride] showed an inhibition at 1 µM [1, 10] of 73.3%, an inhibition at 1 µM [2, 11] of 95% and an inhibition at 1 µM [3, 8] of 104%.
With `CCc1[nH]ncc1-c1cc2nc([C@@H]3CCCCN3)[nH]c(=O)c2s1` [Example 162, 6-(5-ethyl-1H-pyrazol-4-yl)-2-[(2S)-piperidin-2-yl]thieno[3,2-d]pyrimidin-4 (3H)-one dihydrochloride] the inhibition at 1 µM [3, 8] was 104%.
Compound `Cc1[nH]ncc1-c1cc2nc([C@H]3CCCCN3)[nH]c(=O)c2s1` [Example 85, 6-(5-methyl-1H-pyrazol-4-yl)-2-[(2R)-piperidin-2-yl]thieno[3,2-d]pyrimidin-4 (3H)-one dihydrochloride] has an inhibition at 1 µM [3, 9] of 103%.
In the case of `Cc1[nH]ncc1-c1cc2nc([C@H]3NC4CC3[C@H](F)C4)[nH]c(=O)c2s1` (single isomer, unassigned) [Example 175, 2-[(1R,3S,4R,5R) or (1S,3S,4S,5R)-5-fluoro-2-azabicyclo[2.2.1]hept-3-yl]-6-(5-methyl-1H-pyrazol-4-yl)thieno[3,2-d]pyrimidin-4 (3H)-one hydrochloride], the “T/C (%)” value ([4]; 50 mg/kg orally twice a day for 14 days) is reported as 40.3% and the “inhibitory rate (%) at 1 μM” value ([3]; test compound 1 μM, Cdc7/Dbf4, 1.0 μm ATP, 10 μg/ml MCM2, hydrochloride) is reported as 105%.
With `Cc1[nH]ncc1-c1cc2nc(C34CCC(CC3)N4)[nH]c(=O)c2s1` [Example 116, 2-(7-azabicyclo[2.2.1]hept-1-yl)-6-(5-methyl-1H-pyrazol-4-yl)thieno[3,2-d]pyrimidin-4 (3H)-one monohydrochloride] the inhibition at 1 µM [1] was 60.5%, the inhibition at 1 µM ([2]; COLO 205, 8 h) was 98.7% and the inhibition at 1 µM [3, 9] was 102%.
`Cc1[nH]ncc1-c1cc2nc([C@H]3CCCCCN3)[nH]c(=O)c2s1` [Example 101, 2-[(2R)-azepan-2-yl]-6-(5-methyl-1H-pyrazol-4-yl)thieno[3,2-d]pyrimidin-4 (3H)-one] gave an inhibition at 1 µM ([3]; read-out: inhibitory rate (%) at 1 μM) of 96.2%.
For `Cc1[nH]ncc1-c1cc2nc([C@@H]3CCCCN3)[nH]c(=O)c2s1` [Example 174, 6-(5-methyl-1H-pyrazol-4-yl)-2-[(2S)-piperidin-2-yl]thieno[3,2-d]pyrimidin-4 (3H)-one], the “inhibitory rate (%) at 1 μM” value ([3]; test compound 1 μM, Cdc7/Dbf4, 1.0 μm ATP, 10 μg/ml MCM2) was 104%.
`Cc1[nH]ncc1-c1cc2nc(CN3CCCC3)[nH]c(=O)c2s1` [Example 2, 6-(5-methyl-1H-pyrazol-4-yl)-2-(pyrrolidin-1-ylmethyl)thieno[3,2-d]pyrimidin-4 (3H)-one] was tested, and the inhibition at 1 µM [1] was 44.1%, the inhibition at 1 µM ([2]; COLO 205, 8 h) was 90.4% and the inhibition at 1 µM [3, 9] was 93.8%.
For `Cc1[nH]ncc1-c1cc2nc([C@]3(C)CCCN3)[nH]c(=O)c2s1` [Example 103, 6-(5-methyl-1H-pyrazol-4-yl)-2-[(2S)-2-methylpyrrolidin-2-yl]thieno[3,2-d]pyrimidin-4 (3H)-one dihydrochloride], the inhibition at 1 µM [3, 9] was 96.7%.
Work on `Cc1[nH]ncc1-c1cc2nc(C(C)(C)N)[nH]c(=O)c2s1` [Example 135, 2-(1-amino-1-methylethyl)-6-(5-methyl-1H-pyrazol-4-yl)thieno[3,2-d]pyrimidin-4 (3H)-one dihydrochloride] yielded an inhibition at 1 µM [3, 8] of 111%.
`Cc1[nH]ncc1-c1cc2nc([C@@H]3CCCN3)[nH]c(=O)c2s1` [Example 11, 6-(5-methyl-1H-pyrazol-4-yl)-2-[(2S)-pyrrolidin-2-yl]thieno[3,2-d]pyrimidin-4 (3H)-one monotrifluoroacetate] gave an inhibition at 1 µM [3, 9] of 103%.
`Cc1[nH]ncc1-c1cc2nc(CN3CC[C@H](F)C3)[nH]c(=O)c2s1` [Example 4, 2-{[(3S)-3-fluoropyrrolidin-1-yl]methyl}-6-(5-methyl-1H-pyrazol-4-yl)thieno[3,2-d]pyrimidin-4 (3H)-one] showed an inhibition at 1 µM [3, 8] of 102%.
Compound `Cc1[nH]ncc1-c1cc2nc(C3C[C@@H]4CCC[C@@H]4N3)[nH]c(=O)c2s1` (stereo partly drawn) [Example 123, 6-(5-methyl-1H-pyrazol-4-yl)-2-[(3aS,6aS)-octahydrocyclopenta[b]pyrrol-2-yl]thieno[3,2-d]pyrimidin-4 (3H)-one] has an inhibition at 1 µM [3, 8] of 97%.
